From patent publication US12540131B2 (Merck Sharp & Dohme LLC, priority 2019, dated 2026)

Molecular target: GST tagged truncated human mutant G2019S LRRK2 (Homo sapiens (Human), UniProt Q5S007, G2019S)
Test: LRRK2 Km ATP LanthaScreen Assay
Assay type: biochemical
Settings: G2019S LRRK2, 134 μM ATP (Km ATP), mean values
Outline: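 Enzyme (GST-tagged, truncated) was preincubated with compound for 15 min at RT in 50 mM Tris pH 8.5, 10 mM MgCl2, 0.01% Brij-35, 1 mM EGTA, 2 mM DTT and 0.05 mM orthovanadate. Fluorescein-LRRKtide and 134 μM ATP (Km) were then added for 90 min. EDTA and Tb-anti-pERM antibody stopped the reaction; the TR-FRET 520/495 ratio gave 4-parameter IC50s, reported as mean pIC50.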

GST tagged truncated human mutant G2019S LRRK2, sequence (Q5S007 970-2527 G2019S): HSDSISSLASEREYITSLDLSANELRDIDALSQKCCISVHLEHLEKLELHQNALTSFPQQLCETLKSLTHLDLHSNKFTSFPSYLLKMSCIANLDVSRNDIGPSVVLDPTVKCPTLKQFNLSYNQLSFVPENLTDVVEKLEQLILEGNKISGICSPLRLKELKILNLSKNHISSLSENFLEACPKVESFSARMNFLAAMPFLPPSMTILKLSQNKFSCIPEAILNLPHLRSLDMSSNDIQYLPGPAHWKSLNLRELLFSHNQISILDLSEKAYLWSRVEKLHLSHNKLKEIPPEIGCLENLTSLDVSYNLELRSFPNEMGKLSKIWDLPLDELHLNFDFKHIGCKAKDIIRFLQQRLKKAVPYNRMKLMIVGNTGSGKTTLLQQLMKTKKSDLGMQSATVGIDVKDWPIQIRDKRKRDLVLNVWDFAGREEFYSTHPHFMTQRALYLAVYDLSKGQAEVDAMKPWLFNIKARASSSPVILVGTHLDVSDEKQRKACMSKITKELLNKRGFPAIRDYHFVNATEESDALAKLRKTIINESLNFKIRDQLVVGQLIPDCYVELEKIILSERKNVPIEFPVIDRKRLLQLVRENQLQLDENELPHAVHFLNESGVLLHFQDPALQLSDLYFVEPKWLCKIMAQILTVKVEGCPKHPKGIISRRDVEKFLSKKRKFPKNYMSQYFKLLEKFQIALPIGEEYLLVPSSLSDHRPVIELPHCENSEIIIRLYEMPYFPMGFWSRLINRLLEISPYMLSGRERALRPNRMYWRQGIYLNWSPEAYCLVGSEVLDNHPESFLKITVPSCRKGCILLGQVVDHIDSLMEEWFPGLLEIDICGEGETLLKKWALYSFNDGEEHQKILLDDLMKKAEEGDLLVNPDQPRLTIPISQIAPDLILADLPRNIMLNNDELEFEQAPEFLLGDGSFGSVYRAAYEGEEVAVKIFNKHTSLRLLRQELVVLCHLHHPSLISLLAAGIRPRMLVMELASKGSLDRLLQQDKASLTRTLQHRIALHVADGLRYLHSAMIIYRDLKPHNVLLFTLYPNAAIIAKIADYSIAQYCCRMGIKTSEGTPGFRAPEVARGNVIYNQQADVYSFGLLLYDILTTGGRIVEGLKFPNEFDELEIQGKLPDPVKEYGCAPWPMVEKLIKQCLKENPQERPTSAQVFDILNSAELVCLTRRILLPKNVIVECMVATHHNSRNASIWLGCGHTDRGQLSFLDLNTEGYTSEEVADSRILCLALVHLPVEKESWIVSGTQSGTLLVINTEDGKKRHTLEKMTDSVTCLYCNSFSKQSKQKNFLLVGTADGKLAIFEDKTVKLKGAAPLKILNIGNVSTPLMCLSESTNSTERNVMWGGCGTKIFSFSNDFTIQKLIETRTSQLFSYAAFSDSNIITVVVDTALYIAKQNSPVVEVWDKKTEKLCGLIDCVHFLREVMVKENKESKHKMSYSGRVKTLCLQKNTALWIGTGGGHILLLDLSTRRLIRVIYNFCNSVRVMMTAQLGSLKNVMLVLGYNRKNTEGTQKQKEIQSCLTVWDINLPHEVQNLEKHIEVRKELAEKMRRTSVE

Question: `C[C@@]1(N2CC[C@@H](c3cc4nc(Nc5cnn(C6CC6)c5Cl)ncc4cc3Cl)[C@H](F)C2)COC[C@@H]1O` (single isomer, unassigned) [Ex-4.249, (3S,4S)(3S,4S) or (3S,4S)(3R,4R) or (3R,4R)(3S,4S) or (3R,4R)(3R,4R) 4-(4-{6-chloro-2-[(5-chloro-1-cyclopropyl-1H-pyrazol-4-yl)amino]quinazolin-7-yl}-3-fluoropiperidin-1-yl)-4-methyloxolan-3-ol] was tested. Which “LRRK2 pIC50” value did it give?
Answer: >9.20

Question: For `CO[C@H]1COC[C@H]1N1CC[C@@H](c2cc3nc(Nc4cnn(C5CC5)c4Cl)ncc3cc2C)[C@H](F)C1` (single isomer, unassigned) [Ex-4.250, (3S,4S)(3S,4S) or (3S,4S)(3R,4R) or (3R,4R)(3S,4S) or (3R,4R)(3R,4R) N-(5-chloro-1-cyclopropyl-1H-pyrazol-4-yl)-7-[3-fluoro-1-(4-methoxyoxolan-3-yl)piperidin-4-yl]-6-methylquinazolin-2-amine], which “LRRK2 pIC50” value is on record?
Answer: 8.22

Question: `Cn1nc(C(F)(F)F)cc1Nc1ncc2cc(Cl)c([C@@H]3CCN([C@]4(C)COC[C@@H]4O)C[C@H]3F)cc2n1` (single isomer, unassigned) [Ex-4.251, (3S,4S)(3S,4S) or (3S,4S)(3R,4R) or (3R,4R)(3S,4S) or (3R,4R)(3R,4R) 4-[4-(6-chloro-2-{[1-methyl-3-(trifluoromethyl)-1H-pyrazol-5-yl]amino}quinazolin-7-yl)-3-fluoropiperidin-1-yl]-4-methyloxolan-3-ol] was tested. Which “LRRK2 pIC50” value did it give?
Answer: 9.05

Question: `Cn1nc(C(F)(F)F)cc1Nc1ncc2cc(Cl)c([C@@H]3CCN([C@@]4(C)COC[C@H]4O)C[C@H]3F)cc2n1` (single isomer, unassigned) [Ex-4.252, (3S,4S)(3S,4S) or (3S,4S)(3R,4R) or (3R,4R)(3S,4S) or (3R,4R)(3R,4R) 4-[4-(6-chloro-2-{[1-methyl-3-(trifluoromethyl)-1H-pyrazol-5-yl]amino}quinazolin-7-yl)-3-fluoropiperidin-1-yl]-4-methyloxolan-3-ol] was tested. Which “LRRK2 pIC50” value did it give?
Answer: 6.61

Question: How did the “LRRK2 pIC50” value turn out when `Cn1ncc(Nc2ncc3cc(Cl)c([C@@H]4CCN([C@@]5(C)COC[C@H]5O)C[C@H]4F)cc3n2)c1C(F)(F)F` (single isomer, unassigned) [Ex-4.253, (3S,4S)(3S,4S) or (3S,4S)(3R,4R) or (3R,4R)(3S,4S) or (3R,4R)(3R,4R) 4-[4-(6-chloro-2-{[1-methyl-5-(trifluoromethyl)-1H-pyrazol-4-yl]amino}quinazolin-7-yl)-3-fluoropiperidin-1-yl]-4-methyloxolan-3-ol] was run?
Answer: >9.20

Question: How did the “LRRK2 pIC50” value turn out when `Cn1ncc(Nc2ncc3cc(Cl)c([C@@H]4CCN([C@]5(C)COC[C@@H]5O)C[C@H]4F)cc3n2)c1C(F)(F)F` (single isomer, unassigned) [Ex-4.254, (3S,4S)(3S,4S) or (3S,4S)(3R,4R) or (3R,4R)(3S,4S) or (3R,4R)(3R,4R) 4-[4-(6-chloro-2-{[1-methyl-5-(trifluoromethyl)-1H-pyrazol-4-yl]amino}quinazolin-7-yl)-3-fluoropiperidin-1-yl]-4-methyloxolan-3-ol] was run?
Answer: >9.20

Question: With `Cc1c(Nc2ncc3cc(Cl)c([C@@H]4CCN([C@@H]5COC[C@@H]5O)C[C@H]4F)cc3n2)cnn1C` (single isomer, unassigned) [Ex-4.255, (3S,4S)(3S,4S) or (3S,4S)(3R,4R) or (3R,4R)(3S,4S) or (3R,4R)(3R,4R) 4-(4-(6-chloro-2-((1,5-dimethyl-1H-pyrazol-4-yl)amino)quinazolin-7-yl)-3-fluoropiperidin-1-yl)tetrahydrofuran-3-ol] as the molecule, how does the “LRRK2 pIC50” value read?
Answer: >9.20

Question: With `Cc1c(Nc2ncc3cc(Cl)c([C@@H]4CCN([C@H]5COC[C@H]5O)C[C@H]4F)cc3n2)cnn1C` (single isomer, unassigned) [Ex-4.256, (3S,4S)(3S,4S) or (3S,4S)(3R,4R) or (3R,4R)(3S,4S) or (3R,4R)(3R,4R) 4-(4-(6-chloro-2-((1,5-dimethyl-1H-pyrazol-4-yl)amino)quinazolin-7-yl)-3-fluoropiperidin-1-yl)tetrahydrofuran-3-ol] as the molecule, how does the “LRRK2 pIC50” value read?
Answer: >9.20

Question: With `Cc1cc2cnc(Nc3cnn(C)c3C)nc2cc1[C@@H]1CCN([C@@H]2COC[C@@H]2O)C[C@H]1F` (single isomer, unassigned) [Ex-4.257, (3S,4S)(3S,4S) or (3S,4S)(3R,4R) or (3R,4R)(3S,4S) or (3R,4R)(3R,4R) 4-(4-(2-((1,5-dimethyl-1H-pyrazol-4-yl)amino)-6-methylquinazolin-7-yl)-3-fluoropiperidin-1-yl)tetrahydrofuran-3-ol] as the molecule, how does the “LRRK2 pIC50” value read?
Answer: >9.20

Question: For `Cc1cc2cnc(Nc3cnn(C)c3C)nc2cc1[C@@H]1CCN([C@H]2COC[C@H]2O)C[C@H]1F` (single isomer, unassigned) [Ex-4.258, (3S,4S)(3S,4S) or (3S,4S)(3R,4R) or (3R,4R)(3S,4S) or (3R,4R)(3R,4R) 4-(4-(2-((1,5-dimethyl-1H-pyrazol-4-yl)amino)-6-methylquinazolin-7-yl)-3-fluoropiperidin-1-yl)tetrahydrofuran-3-ol], which “LRRK2 pIC50” value is on record?
Answer: 7.39

Question: For `Cc1cc2cnc(Nc3cnn(C)c3Cl)nc2cc1[C@@H]1CCN([C@@H]2COC[C@@H]2O)C[C@H]1F` (single isomer, unassigned) [Ex-4.259, (3S,4S)(3S,4S) or (3S,4S)(3R,4R) or (3R,4R)(3S,4S) or (3R,4R)(3R,4R) 4-(4-(2-((5-chloro-1-methyl-1H-pyrazol-4-yl)amino)-6-methylquinazolin-7-yl)-3-fluoropiperidin-1-yl)tetrahydrofuran-3-ol], which “LRRK2 pIC50” value is on record?
Answer: >9.20

Question: How did the “LRRK2 pIC50” value turn out when `Cc1cc2cnc(Nc3cnn(C)c3Cl)nc2cc1[C@@H]1CCN([C@H]2COC[C@H]2O)C[C@H]1F` (single isomer, unassigned) [Ex-4.260, (3S,4S)(3S,4S) or (3S,4S)(3R,4R) or (3R,4R)(3S,4S) or (3R,4R)(3R,4R) 4-(4-(2-((5-chloro-1-methyl-1H-pyrazol-4-yl)amino)-6-methylquinazolin-7-yl)-3-fluoropiperidin-1-yl)tetrahydrofuran-3-ol] was run?
Answer: 8.00

Question: How did the “LRRK2 pIC50” value turn out when `CO[C@H]1COC[C@H]1N1CC[C@@H](c2cc3nc(Nc4cnn(C5CC5)c4Cl)ncc3cc2C)[C@H](F)C1` (single isomer, unassigned) [Ex-4.261, (3S,4S)(3S,4S) or (3S,4S)(3R,4R) or (3R,4R)(3S,4S) or (3R,4R)(3R,4R) N-(5-chloro-1-cyclopropyl-1H-pyrazol-4-yl)-7-[3-fluoro-1-(4-methoxyoxolan-3-yl)piperidin-4-yl]-6-methylquinazolin-2-amine] was run?
Answer: 7.51

Question: For `COC12CC(n3ncc(Nc4ncc5cc(Cl)c([C@@H]6CCN([C@@H]7COC[C@@H]7O)C[C@H]6F)cc5n4)c3Cl)(C1)C2` (single isomer, unassigned) [Ex-4.262, (3S,4S)(3S,4S) or (3S,4S)(3R,4R) or (3R,4R)(3S,4S) or (3R,4R)(3R,4R) 4-(4-(6-chloro-2-((5-chloro-1-(3-methoxybicyclo[1.1.1]pentan-1-yl)-1H-pyrazol-4-yl)amino)quinazolin-7-yl)-3-fluoropiperidin-1-yl)tetrahydrofuran-3-ol], which “LRRK2 pIC50” value is on record?
Answer: 9.19

Question: `Cc1cc2cnc(Nc3cnn(C4CC4)c3C)nc2cc1[C@@H]1CCN(C2COC2)C[C@H]1F` (single isomer, unassigned) [Ex-5.3, (3S,4S) or (3R,4R) N-(1-cyclopropyl-5-methyl-1H-pyrazol-4-yl)-7-[3-fluoro-1-(oxetan-3-yl)piperidin-4-yl]-6-methylquinazolin-2-amine] was tested. Which “LRRK2 pIC50” value did it give?
Answer: 8.96

Question: With `Cc1cc2cnc(Nc3cnn(C4CC4)c3C)nc2cc1[C@H]1CCN(C2COC2)C[C@@H]1F` (single isomer, unassigned) [Ex-5.4, (3S,4S) or (3R,4R) N-(1-cyclopropyl-5-methyl-1H-pyrazol-4-yl)-7-[3-fluoro-1-(oxetan-3-yl)piperidin-4-yl]-6-methylquinazolin-2-amine] as the molecule, how does the “LRRK2 pIC50” value read?
Answer: 8.75

Question: Which “LRRK2 pIC50” value does the source give for `Cc1cc2cnc(Nc3cnn(CC(C)(C)O)c3C)nc2cc1[C@@H]1CCN(C2COC2)C[C@H]1F` (single isomer, unassigned) [Ex-5.5, (3S,4S) or (3R,4R) 1-[4-({7-[3-fluoro-1-(oxetan-3-yl)piperidin-4-yl]-6-methylquinazolin-2-yl}amino)-5-methyl-1H-pyrazol-1-yl]-2-methylpropan-2-ol] here?
Answer: 8.37

Question: Which “LRRK2 pIC50” value does the source give for `Cc1cc2cnc(Nc3cnn(CC(C)(C)O)c3C)nc2cc1[C@H]1CCN(C2COC2)C[C@@H]1F` (single isomer, unassigned) [Ex-5.6, (3S,4S) or (3R,4R) 1-[4-({7-[3-fluoro-1-(oxetan-3-yl)piperidin-4-yl]-6-methylquinazolin-2-yl}amino)-5-methyl-1H-pyrazol-1-yl]-2-methylpropan-2-ol] here?
Answer: 8.68

Question: `Cc1cc2cnc(Nc3cnn(C4CC4)c3C)nc2cc1C1CCN([C@@H]2COC[C@@H]2O)CC1` (single isomer, unassigned) [Ex-5.7, (3S,4S) or (3R,4R) 4-(4-{2-[(1-cyclopropyl-5-methyl-1H-pyrazol-4-yl)amino]-6-methylquinazolin-7-yl}piperidin-1-yl)oxolan-3-ol] was tested. Which “LRRK2 pIC50” value did it give?
Answer: >9.20

Question: For `Cc1cc(Nc2ncc3cc(C)c([C@@H]4CCN([C@@H]5COC[C@@H]5O)C[C@H]4F)cc3n2)n(C)n1` (single isomer, unassigned) [Ex-5.9, (3S,4S)(3S,4S) or (3S,4S)(3R,4R) or (3R,4R)(3S,4S) or (3R,4R)(3R,4R) 4-(4-{2-[(1,3-dimethyl-1H-pyrazol-5-yl)amino]-6-methylquinazolin-7-yl}-3-fluoropiperidin-1-yl)oxolan-3-ol], which “LRRK2 pIC50” value is on record?
Answer: 8.49

Question: Which “LRRK2 pIC50” value does the source give for `Cc1cc(Nc2ncc3cc(C)c([C@@H]4CCN([C@H]5COC[C@H]5O)C[C@H]4F)cc3n2)n(C)n1` (single isomer, unassigned) [Ex-5.10, (3S,4S)(3S,4S) or (3S,4S)(3R,4R) or (3R,4R)(3S,4S) or (3R,4R)(3R,4R) 4-(4-{2-[(1,3-dimethyl-1H-pyrazol-5-yl)amino]-6-methylquinazolin-7-yl}-3-fluoropiperidin-1-yl)oxolan-3-ol] here?
Answer: 6.66
